“And” between values parts separate entries of the source, which are not always exact repeats. Identical values can stand only once.
Target: COX-1 (Homo sapiens, UniProt P23219)
Test: biochemical
Experimental: Evaluation of COX-1 and COX-2 Activity In Vitro
b. Assay for COX-1 and COX-2 Activity
COX activity was assayed as PGE2 formed/μg protein/time using an ELISA to detect the prostaglandin released. CHAPS-solubilized insect cell membranes containing the appropriate COX enzyme were incubated in a potassium phosphate buffer (50 mM, pH 8.0) containing epinephrine, phenol, and heme with the addition of arachidonic acid (10 μM). Compounds were pre-incubated with the enzyme for 10-20 minutes prior to the addition of arachidonic acid. […] The PGE2 formed was measured by standard ELISA technology (Cayman Chemical).

Sequence of COX-1 (P23219 24-599): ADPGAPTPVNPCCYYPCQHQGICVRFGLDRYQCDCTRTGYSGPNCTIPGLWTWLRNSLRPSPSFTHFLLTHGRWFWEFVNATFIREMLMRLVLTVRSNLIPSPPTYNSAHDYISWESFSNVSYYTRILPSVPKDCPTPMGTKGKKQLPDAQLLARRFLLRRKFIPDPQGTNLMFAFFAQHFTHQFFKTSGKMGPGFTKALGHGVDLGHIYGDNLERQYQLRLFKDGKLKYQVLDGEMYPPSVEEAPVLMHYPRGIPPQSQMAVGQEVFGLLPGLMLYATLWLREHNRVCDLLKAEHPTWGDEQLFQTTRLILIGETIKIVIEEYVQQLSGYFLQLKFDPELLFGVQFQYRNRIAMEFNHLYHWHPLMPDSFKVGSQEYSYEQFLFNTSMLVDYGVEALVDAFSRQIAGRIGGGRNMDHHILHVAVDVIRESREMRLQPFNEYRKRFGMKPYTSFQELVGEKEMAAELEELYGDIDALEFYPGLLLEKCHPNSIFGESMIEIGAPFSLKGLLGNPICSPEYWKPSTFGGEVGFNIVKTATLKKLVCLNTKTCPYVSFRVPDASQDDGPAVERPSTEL

For `O=C(O)C1=Cc2cc(Cl)c(SCc3ccccc3)cc2OC1C(F)(F)F` (centres unmarked) [Example 7e, 7-(benzylthio)-6-chloro-2-(trifluoromethyl)-2H-chromene-3-carboxylic acid], the IC50 was > 100 µM.
`CCCCSc1cc2c(cc1Cl)C=C(C(=O)O)C(C(F)(F)F)O2` (centres unmarked) [Example 7f, 7-(butylthio)-6-chloro-2-(trifluoromethyl)-2H-chromene-3-carboxylic acid] was tested, and the IC50 was 70.8 µM.
`CCC(C)Sc1cc2c(cc1Cl)C=C(C(=O)O)C(C(F)(F)F)O2` (centres unmarked) [Example 7g, 7-(sec-butylthio)-6-chloro-2-(trifluoromethyl)-2H-chromene-3-carboxylic acid] was tested, and the IC50 was 7.2 µM and 6.35 µM.
For `CC1CC(C)CN(c2cc3c(cc2Cl)C=C(C(=O)O)C(C(F)(F)F)O3)C1` (centres unmarked) [Example 8a, 6-chloro-7-(3,5-dimethylpiperidin-1-yl)-2-(trifluoromethyl)-2H-chromene-3-carboxylic acid], the IC50 was > 100 µM and 57.2 µM.
In the case of `CC1CCCN(c2cc3c(cc2Cl)C=C(C(=O)O)C(C(F)(F)F)O3)C1` (centres unmarked) [Example 8b, 6-chloro-7-(3-methylpiperidin-1-yl)-2-(trifluoromethyl)-2H-chromene-3-carboxylic acid], the IC50 is reported as 99 µM and 189 µM.
For `CC1CCN(c2cc3c(cc2Cl)C=C(C(=O)O)C(C(F)(F)F)O3)CC1` (centres unmarked) [Example 8d, 6-chloro-7-(4-methylpiperidin-1-yl)-2-(trifluoromethyl)-2H-chromene-3-carboxylic acid], the IC50 was > 100 µM.
With `O=C(O)C1=Cc2cc(Cl)c(N3CC=CCC3)cc2OC1C(F)(F)F` (centres unmarked) [Example 8e, 6-chloro-7-(3,6-dihydropyridin-1(2H)-yl)-2-(trifluoromethyl)-2H-chromene-3-carboxylic acid] the IC50 was > 100 µM and 130 µM.
In the case of `CCN(C)c1cc2c(cc1Cl)C=C(C(=O)O)C(C(F)(F)F)O2` (centres unmarked) [Example 8f, 6-chloro-7-[ethyl(methyl)amino]-2-(trifluoromethyl)-2H-chromene-3-carboxylic acid], the IC50 is reported as > 100 µM.
For `CCCN(CC1CC1)c1cc2c(cc1Cl)C=C(C(=O)O)C(C(F)(F)F)O2` (centres unmarked) [Example 8g, 6-chloro-7-[(cyclopropylmethyl)(propyl)amino]-2-(trifluoromethyl)-2H-chromene-3-carboxylic acid], the IC50 was > 100 µM and 194 µM.
`CCCCN(CC)c1cc2c(cc1Cl)C=C(C(=O)O)C(C(F)(F)F)O2` (centres unmarked) [Example 8h, 7-[butyl(ethyl)amino]-6-chloro-2-(trifluoromethyl)-2H-chromene-3-carboxylic acid] was tested, and the IC50 was > 100 µM.
For `CN(Cc1ccccc1)c1cc2c(cc1Cl)C=C(C(=O)O)C(C(F)(F)F)O2` (centres unmarked) [Example 8i, 7-[benzyl(methyl)amino]-6-chloro-2-(trifluoromethyl)-2H-chromene-3-carboxylic acid], the IC50 was 14.1 µM.
With `O=C(O)C1=Cc2cc(Cl)c(N3CCC3)cc2OC1C(F)(F)F` (centres unmarked) [Example 8j, 7-azetidin-1-yl-6-chloro-2-(trifluoromethyl)-2H-chromene-3-carboxylic acid] the IC50 was > 100 µM.
`O=C(O)C1=Cc2cc(Cl)c(NCc3ccccc3)cc2OC1C(F)(F)F` (centres unmarked) [Example 8k, 7-(benzylamino)-6-chloro-2-(trifluoromethyl)-2H-chromene-3-carboxylic acid] was tested, and the IC50 was > 100 µM.
With `CCN(CC)c1cc2c(cc1Cl)C=C(C(=O)O)C(C(F)(F)F)O2` (centres unmarked) [Example 8l, 6-chloro-7-(diethylamino)-2-(trifluoromethyl)-2H-chromene-3-carboxylic acid] the IC50 was > 33.3 µM and > 11.1 µM and 180 µM and > 100 µM.
With `CCCCc1cc2c(cc1Cl)C=C(C(=O)O)C(C(F)(F)F)O2` (centres unmarked) [Example 9a, 7-butyl-6-chloro-2-(trifluoromethyl)-2H-chromene-3-carboxylic acid] the IC50 was 9.97 µM and 5.11 µM and 9.72 µM and 5.97 µM and 8.31 µM and 9.5 µM and > 1.2 µM.
With `O=C(O)C1=Cc2ccc(Cc3ccc(F)c(F)c3)cc2OC1C(F)(F)F` (centres unmarked) [Example 9aa, 7-(3,4-difluorobenzyl)-2-(trifluoromethyl)-2H-chromene-3-carboxylic acid] the IC50 was > 100 µM.
With `CC(C)(C)CCc1cc2c(cc1Cl)C=C(C(=O)O)C(C(F)(F)F)O2` (centres unmarked) [Example 9b, 6-chloro-7-(3,3-dimethylbutyl)-2-(trifluoromethyl)-2H-chromene-3-carboxylic acid] the IC50 was 19 µM and 17.9 µM.
Compound `O=C(O)C1=Cc2ccc(Cc3ccc(F)cc3)cc2OC1C(F)(F)F` (centres unmarked) [Example 9bb, 7-(4-fluorobenzyl)-2-(trifluoromethyl)-2H-chromene-3-carboxylic acid] has an IC50 of 37.4 µM.
`CC(C)c1cc2c(cc1Cl)C=C(C(=O)O)C(C(F)(F)F)O2` (centres unmarked) [Example 9f, 6-chloro-7-isopropyl-2-(trifluoromethyl)-2H-chromene-3-carboxylic acid] was tested, and the IC50 was 147 µM and > 100 µM.
`CC(C)c1cc2c(cc1Cl)C(Cl)=C(C(=O)O)C(C(F)(F)F)O2` (centres unmarked) [Example 9g, 4,6-dichloro-7-isopropyl-2-(trifluoromethyl)-2H-chromene-3-carboxylic acid] was tested, and the IC50 was 24.2 µM and 25.1 µM.
With `O=C(O)C1=Cc2cc(Cl)c(CCC3CCCCC3)cc2OC1C(F)(F)F` (centres unmarked) [Example 9i, 6-chloro-7-(2-cyclohexylethyl)-2-(trifluoromethyl)-2H-chromene-3-carboxylic acid] the IC50 was 12.7 µM and 12.5 µM.
`O=C(O)C1=Cc2cc(Cl)c(CCc3ccc(Cl)cc3)cc2OC1C(F)(F)F` (centres unmarked) [Example 9j, 6-chloro-7-[2-(4-chlorophenyl)ethyl]-2-(trifluoromethyl)-2H-chromene-3-carboxylic acid] was tested, and the IC50 was 11.4 µM and 14 µM.
`O=C(O)C1=Cc2cc(Cl)c(Cc3ccccc3)cc2OC1C(F)(F)F` (centres unmarked) [Example 9k, 7-benzyl-6-chloro-2-(trifluoromethyl)-2H-chromene-3-carboxylic acid] was tested, and the IC50 was 0.603 µM and 2.17 µM.
Work on `O=C(O)C1=Cc2cc(Cl)c(Cc3ccccc3Cl)cc2OC1C(F)(F)F` (centres unmarked) [Example 9n, 6-chloro-7-(2-chlorobenzyl)-2-(trifluoromethyl)-2H-chromene-3-carboxylic acid] yielded an IC50 of 0.425 µM.
With `O=C(O)C1=Cc2cc(Cl)c(Cc3ccc(Cl)cc3)cc2OC1C(F)(F)F` (centres unmarked) [Example 9o, 6-chloro-7-(4-chlorobenzyl)-2-(trifluoromethyl)-2H-chromene-3-carboxylic] the IC50 was 9.67 µM and 12.1 µM.
`Cc1cc(Cl)ccc1Cc1cc2c(cc1Cl)C=C(C(=O)O)C(C(F)(F)F)O2` (centres unmarked) [Example 9p, 6-chloro-7-(4-chloro-2-methylbenzyl)-2-(trifluoromethyl)-2H-chromene-3-carboxylic acid] gave an IC50 of 1.51 µM.
For `COc1ccc(Cc2cc3c(cc2Cl)C=C(C(=O)O)C(C(F)(F)F)O3)cc1` (centres unmarked) [Example 9q, 6-chloro-7-(4-methoxybenzyl)-2-(trifluoromethyl)-2H-chromene-3-carboxylic acid], the IC50 was 99.9 µM.
Work on `COc1ccc(Cc2cc3c(cc2Cl)C=C(C(=O)O)C(C(F)(F)F)O3)cc1Cl` (centres unmarked) [Example 9r, 6-chloro-7-(3-chloro-4-methoxybenzyl)-2-(trifluoromethyl)-2H-chromene-3-carboxylic acid] yielded an IC50 of 80.8 µM.
For `Cc1ccc(Cc2cc3c(cc2Cl)C=C(C(=O)O)C(C(F)(F)F)O3)c(C)c1` (centres unmarked) [Example 9s, 6-chloro-7-(2,4-dimethylbenzyl)-2-(trifluoromethyl)-2H-chromene-3-carboxylic acid], the IC50 was 5.85 µM and 5.72 µM.
In the case of `Cc1cc(C)c(Cc2cc3c(cc2Cl)C=C(C(=O)O)C(C(F)(F)F)O3)cc1Cl` (centres unmarked) [Example 9t, 6-chloro-7-(5-chloro-2,4-dimethylbenzyl)-2-(trifluoromethyl)-2H-chromene-3-carboxylic acid], the IC50 is reported as 5.5 µM.
`Cc1ccc(Cc2cc3c(cc2Cl)C=C(C(=O)O)C(C(F)(F)F)O3)c(C)c1Cl` (centres unmarked) [Example 9u, 6-chloro-7-(3-chloro-2,4-dimethylbenzyl)-2-(trifluoromethyl)-2H-chromene-3-carboxylic acid] gave an IC50 of 5.52 µM.
For `COc1cccc(Cc2ccc3c(c2)OC(C(F)(F)F)C(C(=O)O)=C3)c1` (centres unmarked) [Example 9w, 7-(3-methoxybenzyl)-2-(trifluoromethyl)-2H-chromene-3-carboxylic acid], the IC50 was > 100 µM.
With `Cc1ccc(Cc2cc3c(cc2Cl)C=C(C(=O)O)C(C(F)(F)F)O3)cc1` (centres unmarked) [Example 9x, 6-chloro-7-(4-methylbenzyl)-2-(trifluoromethyl)-2H-chromene-3-carboxylic acid] the IC50 was 5.59 µM and 10.3 µM.
Work on `Cc1ccc(Cc2cc3c(cc2Cl)C=C(C(=O)O)C(C(F)(F)F)O3)cc1Cl` (centres unmarked) [Example 9y, 6-chloro-7-(3-chloro-4-methylbenzyl)-2-(trifluoromethyl)-2H-chromene-3-carboxylic acid] yielded an IC50 of 4.69 µM.
For `O=C(O)C1=Cc2cc(Cl)c(Cc3ccc(F)c(F)c3)cc2OC1C(F)(F)F` (centres unmarked) [Example 9z, 6-chloro-7-(3,4-difluorobenzyl)-2-(trifluoromethyl)-2H-chromene-3-carboxylic acid], the IC50 was 27.4 µM.
For `O=C(O)C1=Cc2cc(Cl)c(C(=O)c3ccccc3)cc2OC1C(F)(F)F` (centres unmarked) [Example 10, 7-benzoyl-6-chloro-2-(trifluoromethyl)-2H-chromene-3-carboxylic acid], the IC50 was < 0.137 µM.
`O=C(O)C1=Cc2ccc(C(=O)c3cccnc3)cc2OC1C(F)(F)F` (centres unmarked) [Example 11, 7-(pyridin-3-ylcarbonyl)-2-(trifluoromethyl)-2H-chromene-3-carboxylic acid] was tested, and the IC50 was > 100 µM.
With `O=C(O)C1=Cc2ccc(-c3ccco3)cc2OC1C(F)(F)F` (centres unmarked) [Example 12, 7-(2-furyl)-2-(trifluoromethyl)-2H-chromene-3-carboxylic acid] the IC50 was > 100 µM.
`O=C(O)C1=Cc2c(cc(Cc3ccccc3)c(Cl)c2Cl)OC1C(F)(F)F` (centres unmarked) [Example 13, 7-benzyl-5,6-dichloro-2-(trifluoromethyl)-2H-chromene-3-carboxylic acid] was tested, and the IC50 was 4.18 µM and 2.79 µM.
With `Cc1c(Cc2ccccc2)c(Cl)cc2c1OC(C(F)(F)F)C(C(=O)O)=C2` (centres unmarked) [Example 14a, 7-benzyl-6-chloro-8-methyl-2-(trifluoromethyl)-2H-chromene-3-carboxylic acid] the IC50 was < 0.137 µM.
For `Cc1c(Cc2ccccc2)ccc2c1OC(C(F)(F)F)C(C(=O)O)=C2` (centres unmarked) [Example 14b, 7-benzyl-8-methyl-2-(trifluoromethyl)-2H-chromene-3-carboxylic acid], the IC50 was < 0.137 µM.
For `CCCC(=O)NCc1cc2c(cc1Cl)C=C(C(=O)O)C(C(F)(F)F)O2` (centres unmarked) [Example 16, 7-[(butyrylamino)methyl]-6-chloro-2-(trifluoromethyl)-2H-chromene-3-carboxylic acid], the IC50 was > 100 µM.
For `O=C(O)C1=Cc2cc(O)cc(Cl)c2OC1C(F)(F)F` (centres unmarked) [Example 17b, 8-chloro-6-hydroxy-2-(trifluoromethyl)-2H-chromene-3-carboxylic acid], the IC50 was > 100 µM and 455 µM.
`O=C(O)C1=Cc2cc(OCC(F)(F)F)cc(Cl)c2OC1C(F)(F)F` (centres unmarked) [Example 17c, 8-chloro-6-(2,2,2-trifluoroethoxy)-2-(trifluoromethyl)-2H-chromene-3-carboxylic acid] was tested, and the IC50 was 3.58 µM and 0.623 µM.

From patent US20050148627A1, “Benzopyran compounds for use in the treatment and prevention of inflammation related conditions” (priority 2003, published 2005)
